Results taken from patent US9364479B2, “Use of a receptor-type kinase modulator for treating polycystic kidney disease” (SYMPHONY EVOLUTION, INC., priority 2010, dated 2016).

Columns and labels:
[1] = tested on: Vasoactive Intestinal Peptide, Non-selective; test: NovaScreen assay; type: binding
[2] = tested on: panel of 10 tyrosine kinases and 55 serine-threonine kinases; test: Kinase panel screen; type: biochemical; conditions: incl. insulin and IGF-1 receptor, CDKs, SAPKs, PKC isoforms
[3] = tested on: subjects with advanced solid tumors; test: Clinical Study XL-647-001 (Phase 1, Intermittent 5&9 schedule)
Protocol: (§1) Enrollment is complete, and all subjects have been off study as of 31 May 2007. Subjects initially received a powder in bottle (PIB) formulation using mass-based dosing. […] The final cohort received a fixed dose of 350 mg in a tablet formulation.

[4] = as above; conditions: human, in vivo
Protocol: as §1

[5] = tested on: Potassium Channel, Ca2+ Act., VI; test: NovaScreen assay; type: binding
Vasopressin 1 = biological target: T1, Vasopressin 1 (Homo sapiens, UniProt P37288); test: NovaScreen assay; type: binding; conditions: read-out: Inhibition, 10 μM XL-647
T1 construct: NovaScreen

Glutamate, AMPA Site = test: NovaScreen assay; type: binding
[6] = tested on: HT-29 human tumor xenograft; test: HT-29 xenograft, tumor growth; type: in vivo; conditions: Mus musculus
Protocol: The response of tumors to treatment was determined by comparing the mean tumor weight of the treatment group with the appropriate control group. Percentage inhibition of tumor growth was determined with the following formula: Percentage inhibition=100×[1−(Xf−Xo)/(Yf−Yo)], where Xf and Yf are the mean tumor weights of the treatment and control groups, respectively, on day f, and Xo and Yo are the mean tumor weights of treatment and control groups respectively, on day zero (staged tumor weights after grouping)

ErbB2 [7] = biological target: T2, ErbB2 (Homo sapiens, UniProt P04626); test: ErbB2 autophosphorylation ELISA, BT474 cells; type: cell-based; conditions: read-out: Cellular IC50, autophosphorylation
Protocol: The ErbB2 autophosphorylation ELISA utilized BT474 (ATCC) cells. Cells were seeded at 3×10^4 cells/well into 96-well microtiter plates (Costar 3904), in 1:1(DMEM:F12K) (Cellgro) containing 10% FBS (Heat-Inactivated, Hyclone), 1% penicillin-streptomycin (Cellgro), 1% NEAA solution (Cellgro), and 2% L-Glutamine (Cellgro). The cells were then incubated at 37° C., 5% CO2 for 40 hr. […] Following treatment, media was removed, the cell monolayer was washed with cold PBS and immediately lysed with cold lysis buffer. Lysates were centrifuged and transferred into blocked (1% BSA) 96-well high-binding plates (Costar 3925) coated with rabbit polyclonal anti-ErbB2 (1.3 μg/ml, Cell Signaling Technology). Plates were then incubated with HRP-conjugated, anti-phosphotyrosine cocktail (1:10,000, Zymed Laboratories, Inc), followed by the addition of a luminol-based substrate solution. Plates were read with a Victor spectrophotometer (Wallac). IC50 values were determined based on total ErbB2 tyrosine phosphorylation with compound treatment versus total ErbB2 tyrosine phosphorylation with no compound treatment.

Leukotriene B4, LTB4 = biological target: T3, Leukotriene B4, LTB4 (Homo sapiens, UniProt Q15722); test: NovaScreen assay; type: binding; conditions: read-out: Inhibition, 10 μM XL-647
T3 construct: NovaScreen

ErbB2 [8] = biological target: T2, ErbB2; test: Mechanism of action study / Ki determination; type: biochemical; design: residues Q679-V1255 of human ErbB2, Proqinase; purchased Proqinase
Protocol: Enzymatic activity was measured by standard methods after dilution of the enzyme-inhibitor complex.
Target sequence in this assay (P04626 679-1255): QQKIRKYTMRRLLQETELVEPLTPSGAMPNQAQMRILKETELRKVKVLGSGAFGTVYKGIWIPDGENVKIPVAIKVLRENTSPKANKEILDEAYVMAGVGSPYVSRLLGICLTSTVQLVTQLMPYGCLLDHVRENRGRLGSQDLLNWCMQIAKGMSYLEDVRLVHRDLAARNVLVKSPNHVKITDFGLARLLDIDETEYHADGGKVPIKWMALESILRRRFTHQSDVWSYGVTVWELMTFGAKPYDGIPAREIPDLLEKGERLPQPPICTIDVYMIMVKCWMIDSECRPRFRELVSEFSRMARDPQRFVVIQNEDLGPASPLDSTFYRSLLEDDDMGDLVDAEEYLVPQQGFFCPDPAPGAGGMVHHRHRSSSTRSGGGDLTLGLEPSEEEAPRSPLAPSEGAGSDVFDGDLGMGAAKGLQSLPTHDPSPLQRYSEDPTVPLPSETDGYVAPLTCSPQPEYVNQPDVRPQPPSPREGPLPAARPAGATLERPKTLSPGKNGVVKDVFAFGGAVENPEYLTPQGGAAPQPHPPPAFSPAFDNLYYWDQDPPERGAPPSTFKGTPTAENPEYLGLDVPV

wt EGFR (A431) = wt EGFR (A431) (Homo sapiens, UniProt P00533); test: Cell-based EGFR autophosphorylation assay in A431 cells; conditions: read-out: IC50, EGFR phosphorylation
Protocol: A431 contains overexpressed wt human EGFR.
A431 and MDA-MB-231 cell lines were maintained and propagated as monolayer cultures in DMEM (Mediatech) containing L-glutamine supplemented with 10% heat-inactivated fetal bovine serum (Hyclone), 100 units/mL penicillin G, 100 μg/mL streptomycin (1% penicillin/streptomycin, Mediatech), and 1% nonessential amino acids (Mediatech) at 37° C. in a humidified 5% CO2 incubator.
A431 cells were seeded at 5×10^4 per well in 96-well microtiter plates (3904 Costar, VWR) and incubated in fully supplemented DMEM for 16 h after which growth medium was replaced with serum-free DMEM and the cells were incubated for an additional 24 h. […] After treatment, cell monolayers were washed with cold PBS and immediately lysed with cold lysis buffer (50 mmol/L Tris-HCl (pH 8.0), 150 mmol/L NaCl, 10% glycerol, 1% NP40, 0.1% SDS, 0.5% sodium deoxycholate, 1 mmol/L EDTA, 50 mmol/L NaF, 1 mmol/L sodium pyrophosphate, 1 mmol/L sodium orthovanadate, 2 mmol/L phenylmethylsulfonyl fluoride, 10 μg/mL aprotinin, 5 μg/mL leupeptin, 5 μg/mL pepstatin). […] Horseradish peroxidase activity was determined by reading the plates in a Victor2 plate reader following addition of the ELISA Femto substrate (Pierce).

[9] = biological target: T4, Thyrotropin Releasing Hormone, TRH (Homo sapiens, UniProt P34981); test: NovaScreen assay; type: binding; conditions: read-out: Inhibition, 10 μM XL-647
T4 construct: NovaScreen

CSK = CSK (Homo sapiens, UniProt P41240); test: In vitro kinase inhibition screen; type: biochemical
Protocol: (§2) Further screening was performed using the biochemical assay methods of Example 2. Additional description of the components and concentrations are summarized in Table 8, Table 9, and Table 10, below.

CDK5 = CDK5 (Homo sapiens, UniProt Q00535); test: In vitro kinase inhibition screen; type: biochemical
Protocol: as §2

CDK6 = CDK6 (Homo sapiens, UniProt Q00534); test: In vitro kinase inhibition screen; type: biochemical
Protocol: as §2

PKBβ = PKBβ (Homo sapiens, UniProt P31751); test: In vitro kinase inhibition screen; type: biochemical
Protocol: as §2

PAK2 = PAK2 (Homo sapiens, UniProt Q13177); test: In vitro kinase inhibition screen; type: biochemical
Protocol: as §2

Yes = Yes (Homo sapiens, UniProt P07947); test: In vitro kinase inhibition screen; type: biochemical
Protocol: as §2

CDK7 = CDK7 (Homo sapiens, UniProt P50613); test: In vitro kinase inhibition screen; type: biochemical
Protocol: as §2

p70S6K = p70S6K (Homo sapiens, UniProt P23443); test: In vitro kinase inhibition screen; type: biochemical
Protocol: as §2

SGK = SGK (Homo sapiens, UniProt O00141); test: In vitro kinase inhibition screen; type: biochemical
Protocol: as §2

JNK2α = JNK2α (Homo sapiens, UniProt P45984); test: In vitro kinase inhibition screen; type: biochemical
Protocol: as §2

Rsk2 = Rsk2 (Homo sapiens, UniProt P51812); test: In vitro kinase inhibition screen; type: biochemical
Protocol: as §2

PDGFR-α = PDGFR-α (Homo sapiens, UniProt P16234); test: In vitro kinase inhibition screen; type: biochemical
Protocol: as §2

Syk = Syk (Homo sapiens, UniProt P43405); test: In vitro kinase inhibition screen; type: biochemical
Protocol: as §2

Rsk1 = Rsk1 (Homo sapiens, UniProt Q15418); test: In vitro kinase inhibition screen; type: biochemical
Protocol: as §2

PRAK = PRAK (Homo sapiens, UniProt Q8IW41); test: In vitro kinase inhibition screen; type: biochemical
Protocol: as §2

c-Raf = c-Raf (Homo sapiens, UniProt P04049); test: In vitro kinase inhibition screen; type: biochemical
Protocol: as §2

MAPK1 = MAPK1 (Homo sapiens, UniProt P27361); test: In vitro kinase inhibition screen; type: biochemical
Protocol: as §2

MKK7β = MKK7β (Homo sapiens, UniProt O14733); test: In vitro kinase inhibition screen; type: biochemical
Protocol: as §2

[10] = human, in vivo
Protocol: Food effect on bioavailability was analyzed.

in vitro = in vitro ADME, mouse and human; conditions: rat, mouse, human, plasma
Adenosine, Non-selective = test: NovaScreen assay; type: binding
[11] = tested on: Glutamic Acid Decarboxylase; test: NovaScreen assay; type: biochemical
PDGFRβ = PDGFRβ (Homo sapiens, UniProt P09619); test: Cellular autophosphorylation assay; type: cell-based

p70S6K, sequence (P23443 whole entry): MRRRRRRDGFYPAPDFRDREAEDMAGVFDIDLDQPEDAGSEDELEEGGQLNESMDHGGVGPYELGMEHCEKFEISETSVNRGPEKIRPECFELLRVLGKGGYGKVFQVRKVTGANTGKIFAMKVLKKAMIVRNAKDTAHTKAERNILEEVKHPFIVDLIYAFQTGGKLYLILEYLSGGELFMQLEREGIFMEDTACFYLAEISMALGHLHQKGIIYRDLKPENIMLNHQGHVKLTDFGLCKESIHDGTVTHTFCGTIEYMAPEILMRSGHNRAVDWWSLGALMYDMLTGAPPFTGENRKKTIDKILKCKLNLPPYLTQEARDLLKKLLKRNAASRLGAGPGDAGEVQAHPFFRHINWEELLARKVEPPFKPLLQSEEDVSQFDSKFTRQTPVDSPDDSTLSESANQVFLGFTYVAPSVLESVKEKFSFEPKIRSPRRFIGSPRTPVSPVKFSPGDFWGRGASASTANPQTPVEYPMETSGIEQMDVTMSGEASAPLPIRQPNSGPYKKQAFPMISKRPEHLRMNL
CDK6, sequence (Q00534 whole entry, species assumed): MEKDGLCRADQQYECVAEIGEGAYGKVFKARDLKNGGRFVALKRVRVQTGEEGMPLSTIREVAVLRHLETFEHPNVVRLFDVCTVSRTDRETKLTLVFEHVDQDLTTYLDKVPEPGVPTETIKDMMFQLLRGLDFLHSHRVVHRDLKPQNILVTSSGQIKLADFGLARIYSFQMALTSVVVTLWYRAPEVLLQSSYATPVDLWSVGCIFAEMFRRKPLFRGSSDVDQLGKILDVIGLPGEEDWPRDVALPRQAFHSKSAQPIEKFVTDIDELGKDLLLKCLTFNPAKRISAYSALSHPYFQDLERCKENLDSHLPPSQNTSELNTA
CDK6, sequence (P30281 whole entry partner, species assumed): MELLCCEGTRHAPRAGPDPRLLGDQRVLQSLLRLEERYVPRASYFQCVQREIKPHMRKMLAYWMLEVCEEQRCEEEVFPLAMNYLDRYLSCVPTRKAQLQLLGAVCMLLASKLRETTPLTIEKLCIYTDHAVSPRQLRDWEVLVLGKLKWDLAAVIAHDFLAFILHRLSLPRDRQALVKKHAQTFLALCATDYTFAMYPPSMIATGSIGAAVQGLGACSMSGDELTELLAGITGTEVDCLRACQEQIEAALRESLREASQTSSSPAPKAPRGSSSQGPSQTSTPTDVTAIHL
PRAK, sequence (Q8IW41 whole entry, species assumed): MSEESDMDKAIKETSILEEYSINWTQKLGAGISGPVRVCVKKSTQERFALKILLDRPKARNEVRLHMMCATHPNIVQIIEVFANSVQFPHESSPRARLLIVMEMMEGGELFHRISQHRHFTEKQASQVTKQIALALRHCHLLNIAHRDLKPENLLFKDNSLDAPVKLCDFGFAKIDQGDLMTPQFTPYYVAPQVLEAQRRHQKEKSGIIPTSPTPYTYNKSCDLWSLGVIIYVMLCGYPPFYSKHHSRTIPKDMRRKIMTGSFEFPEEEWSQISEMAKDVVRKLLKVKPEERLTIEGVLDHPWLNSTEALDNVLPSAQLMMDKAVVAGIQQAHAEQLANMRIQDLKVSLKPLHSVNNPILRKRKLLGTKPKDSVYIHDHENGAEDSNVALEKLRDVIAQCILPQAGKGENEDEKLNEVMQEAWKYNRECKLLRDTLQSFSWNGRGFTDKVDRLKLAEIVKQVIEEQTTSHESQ
SGK, sequence (O00141 whole entry, species assumed): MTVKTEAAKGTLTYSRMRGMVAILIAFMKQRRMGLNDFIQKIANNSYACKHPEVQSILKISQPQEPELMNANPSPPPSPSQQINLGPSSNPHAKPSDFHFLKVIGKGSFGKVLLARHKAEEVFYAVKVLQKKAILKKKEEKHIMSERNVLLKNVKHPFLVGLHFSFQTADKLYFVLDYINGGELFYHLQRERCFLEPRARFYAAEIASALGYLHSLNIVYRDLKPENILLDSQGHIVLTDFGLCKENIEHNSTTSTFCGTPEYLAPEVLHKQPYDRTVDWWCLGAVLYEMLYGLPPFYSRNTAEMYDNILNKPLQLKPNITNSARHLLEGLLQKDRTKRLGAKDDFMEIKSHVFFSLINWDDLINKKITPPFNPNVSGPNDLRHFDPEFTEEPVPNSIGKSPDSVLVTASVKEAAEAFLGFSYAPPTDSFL
PDGFR-α, sequence (P16234 24-1089, species assumed): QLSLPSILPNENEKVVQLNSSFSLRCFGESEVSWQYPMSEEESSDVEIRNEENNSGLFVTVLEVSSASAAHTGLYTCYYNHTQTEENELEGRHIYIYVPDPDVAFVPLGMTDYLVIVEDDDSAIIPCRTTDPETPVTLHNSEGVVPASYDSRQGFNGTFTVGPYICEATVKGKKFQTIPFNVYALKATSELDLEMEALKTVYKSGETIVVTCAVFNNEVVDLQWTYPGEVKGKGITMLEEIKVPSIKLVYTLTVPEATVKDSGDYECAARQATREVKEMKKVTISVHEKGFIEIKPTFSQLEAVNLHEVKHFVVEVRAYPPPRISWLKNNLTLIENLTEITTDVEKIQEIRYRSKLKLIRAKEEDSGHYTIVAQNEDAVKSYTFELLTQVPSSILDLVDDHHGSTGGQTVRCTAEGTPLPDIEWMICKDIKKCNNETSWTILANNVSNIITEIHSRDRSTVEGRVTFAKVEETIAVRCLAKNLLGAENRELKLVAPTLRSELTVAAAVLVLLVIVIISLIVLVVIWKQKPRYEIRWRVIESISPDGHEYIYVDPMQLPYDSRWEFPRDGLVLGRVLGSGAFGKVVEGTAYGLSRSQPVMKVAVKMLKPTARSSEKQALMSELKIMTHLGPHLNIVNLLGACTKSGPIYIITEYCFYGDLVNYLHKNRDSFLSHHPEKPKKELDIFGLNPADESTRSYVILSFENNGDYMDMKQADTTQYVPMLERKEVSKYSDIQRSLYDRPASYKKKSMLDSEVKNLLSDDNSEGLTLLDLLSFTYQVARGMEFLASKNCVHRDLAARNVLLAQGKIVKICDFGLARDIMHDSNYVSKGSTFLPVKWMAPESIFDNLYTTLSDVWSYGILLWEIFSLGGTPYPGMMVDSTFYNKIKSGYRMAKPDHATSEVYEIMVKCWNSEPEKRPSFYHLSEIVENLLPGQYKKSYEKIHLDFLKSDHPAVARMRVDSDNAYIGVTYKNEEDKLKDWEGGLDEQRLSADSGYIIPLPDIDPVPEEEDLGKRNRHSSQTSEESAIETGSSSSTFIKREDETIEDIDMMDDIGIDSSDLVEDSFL
T1 sequence (P37288 whole entry): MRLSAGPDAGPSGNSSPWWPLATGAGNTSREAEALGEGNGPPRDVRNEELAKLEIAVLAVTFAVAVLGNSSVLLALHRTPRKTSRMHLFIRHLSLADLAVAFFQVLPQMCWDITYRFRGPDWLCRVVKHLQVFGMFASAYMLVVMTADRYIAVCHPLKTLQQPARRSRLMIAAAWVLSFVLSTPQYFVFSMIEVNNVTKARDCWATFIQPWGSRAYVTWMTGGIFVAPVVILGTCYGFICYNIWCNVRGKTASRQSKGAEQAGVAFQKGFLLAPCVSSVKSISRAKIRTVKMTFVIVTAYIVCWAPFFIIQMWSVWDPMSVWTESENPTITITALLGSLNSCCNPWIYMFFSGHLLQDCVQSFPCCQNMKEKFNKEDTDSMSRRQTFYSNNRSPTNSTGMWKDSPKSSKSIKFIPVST
T4 sequence (P34981 whole entry): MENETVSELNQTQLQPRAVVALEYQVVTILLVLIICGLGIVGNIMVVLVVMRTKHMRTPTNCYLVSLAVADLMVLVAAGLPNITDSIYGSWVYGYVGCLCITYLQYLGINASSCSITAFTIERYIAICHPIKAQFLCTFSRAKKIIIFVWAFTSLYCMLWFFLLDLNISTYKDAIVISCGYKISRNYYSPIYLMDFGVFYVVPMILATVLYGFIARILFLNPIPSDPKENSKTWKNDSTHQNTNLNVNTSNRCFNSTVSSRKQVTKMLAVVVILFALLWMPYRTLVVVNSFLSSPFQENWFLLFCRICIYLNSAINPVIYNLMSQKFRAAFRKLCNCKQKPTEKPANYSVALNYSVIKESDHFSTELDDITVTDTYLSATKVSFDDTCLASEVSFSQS
T3 sequence (Q15722 whole entry): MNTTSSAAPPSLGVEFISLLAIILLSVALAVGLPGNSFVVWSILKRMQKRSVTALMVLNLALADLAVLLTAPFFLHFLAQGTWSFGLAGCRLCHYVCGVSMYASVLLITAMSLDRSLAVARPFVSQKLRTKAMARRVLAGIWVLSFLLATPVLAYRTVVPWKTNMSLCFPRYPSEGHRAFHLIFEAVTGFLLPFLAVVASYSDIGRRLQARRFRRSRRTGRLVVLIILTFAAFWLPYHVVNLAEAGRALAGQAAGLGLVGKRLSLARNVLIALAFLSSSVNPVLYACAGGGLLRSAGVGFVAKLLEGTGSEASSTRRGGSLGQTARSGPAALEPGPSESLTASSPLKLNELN

COc1cc2c(Nc3ccc(Cl)c(Cl)c3F)ncnc2cc1OC[C@@H]1C[C@@H]2CN(C)C[C@@H]2C1 [XL-647, N-(3,4-dichloro-2-fluorophenyl)-7-({[(3aR,5r,6aS)-2-methyloctahydrocyclopenta[c]pyrrol-5-yl]methyl}oxy)-6-(methyloxy)quinazolin-4-amine]
Inhibition, 10 μM XL-647 [1]: 17.02%
activity against kinase panel, in words [2]: inactive
MTD converted to a fixed dose ([3]; Intermittent 5&9 schedule): 350 mg
subjects with unconfirmed partial response (PR) ([3]; NSCLC, Day 228): one
other subjects with prolonged stable disease lasting greater than 3 months ([3]; intermittent schedule): 14 subjects
MTD [4]: 4.68 mg/kg
Inhibition, 10 μM XL-647 [5]: 17.02%
inhibition at 10 µM (Vasopressin 1): 32.8%
Inhibition, 10 μM XL-647 (Glutamate, AMPA Site): 10.79%
ED50 ([6]; HT-29, qd × 14): 20.2 mg/kg
ED50 ([6]; HT-29, qd × 28): 16 mg/kg
IC50 (ErbB2 [7]): 0.552 µM
inhibition at 10 µM (Leukotriene B4, LTB4): 32.2%
ATP-Competitive (ErbB2 [8]): Yes
Ki (ErbB2 [8]): 0.003 µM
Reversible (ErbB2 [8]): Yes
IC50 (wt EGFR (A431)): 0.001 µM
inhibition at 10 µM [9]: 4.59%
IC50 (CSK): 0.402 µM
IC50 (CDK5): > 1 µM
IC50 (CDK6): > 1 µM
IC50 (PKBβ): > 10 µM
IC50 (PAK2): > 1 µM
IC50 (Yes): 0.0011 µM
IC50 (CDK7): > 1 µM
IC50 (p70S6K; list in excess of 1 μM): > 1 µM
IC50 (p70S6K; list in excess of 10 μM): > 10 µM
IC50 (SGK): > 10 µM
IC50 (JNK2α): > 1 µM
IC50 (Rsk2): > 1 µM
IC50 (PDGFR-α): 0.0644 ± 0.0072 µM
IC50 (Syk): > 1 µM
IC50 (Rsk1): > 1 µM
IC50 (PRAK): > 1 µM
IC50 (c-Raf): > 1 µM
IC50 (MAPK1): > 1 µM
IC50 (MKK7β): > 1 µM
AUC increase in the presence of food [10]: approximately 18%
Cmax increase in the presence of food [10]: about 5%
fraction unbound (in vitro): 0.04 to 0.09
Inhibition, 10 μM XL-647 (Adenosine, Non-selective): 47.89%
Inhibition, 10 μM XL-647 [11]: −8.46%
IC50 (PDGFRβ): > 1.2 µM
